Assay results as given in US12371454B2, “Cyclic peptide compound having Kras inhibitory action” (priority 2019, dated 2025).
pIC50: −log10 of the molar value. Starred links: 1 amine or outer side, 2 acyl side, 3 side chain; linkers in the order of their positions; H or OH if unused. Positions of bridges follow the written chain, without caps; N, C: chain ends. Non-standard residues stand in square brackets, D forms with d. Residues, ends and D or L forms follow the SMILES beside them. *: point of attachment. hPhe(3-Cl-4-CF3) = N[C@@H](CCc1ccc(C(F)(F)F)c(Cl)c1)C(=O)O; hPhe(3-F,4-CF3) = N[C@@H](CCc1ccc(C(F)(F)F)c(F)c1)C(=O)O; hPhe(4-CF3) = N[C@@H](CCc1ccc(C(F)(F)F)cc1)C(=O)O; NEtPhe(4-Cl) = CCN[C@@H](Cc1ccc(Cl)cc1)C(=O)O; NMePhe(4-Cl) = CN[C@@H](Cc1ccc(Cl)cc1)C(=O)O; NMePhe(2-CN) = CN[C@@H](Cc1ccccc1C#N)C(=O)O; NMePhe(4-Me) = CN[C@@H](Cc1ccc(C)cc1)C(=O)O; NMePhe(2-Cl) = CN[C@@H](Cc1ccccc1Cl)C(=O)O; NMedβ3hAla = C[C@H](CC(=O)[*:2])N(C)[*:1]; Oic = O=C(O)[C@@H]1C[C@@H]2CCCC[C@@H]2N1; NMeGly(cPent) = CN[C@H](C(=O)O)C1CCCC1; Phe(3-I) = N[C@@H](Cc1cccc(I)c1)C(=O)O; NMe3Pal = CN[C@@H](Cc1cccnc1)C(=O)O; NMeGly(cBu) = CN[C@H](C(=O)O)C1CCC1; NMeCha = CN[C@@H](CC1CCCCC1)C(=O)O; NMeChg = CN[C@H](C(=O)O)C1CCCCC1; NMeF = CN[C@@H](Cc1ccccc1)C(=O)O; NMeI = CC[C@H](C)[C@H](NC)C(=O)O; hPhe = N[C@@H](CCc1ccccc1)C(=O)O; NMeD = CN[C@@H](CC(=O)O)C(=O)O; NMeL = CN[C@@H](CC(C)C)C(=O)O; Chg = N[C@H](C(=O)O)C1CCCCC1; NMeV = CN[C@H](C(=O)O)C(C)C; Trifluoroethyl = FC(F)(F)C*; d(β3hA) = C[C@@H](N)CC(=O)O; hSer = N[C@@H](CCO)C(=O)O; NMeA = CN[C@@H](C)C(=O)O; NMeAib = CNC(C)(C)C(=O)O; Nle = CCCC[C@H](N)C(=O)O; Piperidide = C1CCN(*)CC1; Pyrrolidide = C1CCN(*)C1; dNMeA = CN[C@H](C)C(=O)O; Ac5c = NC1(C(=O)O)CCCC1; Aze = O=C(O)[C@@H]1CCN1; Ac4c = NC1(C(=O)O)CCC1; Aib = CC(C)(N)C(=O)O; Sar = CNCC(=O)O

target: T1, Kras and SOS1 (biotin-tagged human Kras loaded with GDP, His-tagged human SOS1) (Homo sapiens, UniProt P01116, G12D); assay: Protein-protein interaction inhibition between Kras and SOS1 (KrasGl2D-SOS PPI) using AlphaScreen; format: binding; conditions: AlphaScreen; biotin-tagged human Kras loaded with GDP, His-tagged human SOS1; read-out: KRAS G12D-SOS PPI IC50
T1 construct: made in house; host or cells: E. coli (stated for Kras only)
T1 sequence (P01116 1-188 isoform P01116-2 G12D): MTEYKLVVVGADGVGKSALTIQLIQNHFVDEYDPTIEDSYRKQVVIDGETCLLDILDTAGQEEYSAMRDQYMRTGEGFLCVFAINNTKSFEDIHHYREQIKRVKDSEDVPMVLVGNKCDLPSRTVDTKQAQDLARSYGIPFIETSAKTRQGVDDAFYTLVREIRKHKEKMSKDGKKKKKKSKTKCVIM
How it was run: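 Donor beads (nickel) hold His-SOS1; acceptor beads (streptavidin) hold biotin-Kras bound to GDP. Signal measured at 520-620 nm following 680 nm excitation.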

Row | Compound | pIC50
1 | CC(C)C[C@H]1C(=O)N[C@@H](COCC(F)(F)F)C(=O)N(C)CC(=O)N(C)CC(=O)N(C)[C@@H](CC2CCCCC2)C(=O)N(C)CC(=O)N[C@@H](CCc2ccc(C(F)(F)F)c(Cl)c2)C(=O)N2CCC[C@H]2C(=O)NC2(CCCC2)C(=O)N(C)[C@@H](C2CCCCC2)C(=O)N(C)[C@H](C(=O)N2CCCCC2)CC(=O)N1C [Compound 894] ([NMeL]S(Trifluoroethyl)[Sar][Sar][NMeCha][Sar][hPhe(3-Cl-4-CF3)]P[Ac5c][NMeChg][NMeD]-Piperidide; lactam N-11) | 7.96
2 | CCCC[C@@H]1NC(=O)[C@H](CCc2ccc(C(F)(F)F)c(Cl)c2)NC(=O)CN(C)C(=O)[C@H](Cc2ccc(Cl)cc2)N(CC)C(=O)CN(C)C(=O)CN(C)C(=O)[C@H]([C@@H](C)CC)NC(=O)[C@H](CC(C)C)N(C)C(=O)C[C@@H](C(=O)N2CCCCC2)N(C)C(=O)[C@H](CC(C)C)NC(=O)C(C)(C)N(C)C1=O [Compound 895] ([NMeL]I[Sar][Sar][NEtPhe(4-Cl)][Sar][hPhe(3-Cl-4-CF3)][Nle][NMeAib]L[NMeD]-Piperidide; lactam N-11) | 8.08
3 | CC[C@H](C)[C@@H]1NC(=O)[C@H](C)N(C)C(=O)C[C@@H](C)NC(=O)[C@H](CC(C)C)N(C)C(=O)[C@H](CC(C)C)N(C)C(=O)[C@@H]2CCCN2C(=O)[C@H](CCc2ccc(C(F)(F)F)cc2)NC(=O)CN(C)C(=O)[C@H](Cc2ccc(Cl)cc2)N(C)C(=O)CN(C)C(=O)CN(C)C1=O [Compound 902] (cyclo(I[Sar][Sar][NMePhe(4-Cl)][Sar][hPhe(4-CF3)]P[NMeL][NMeL][d(β3hA)][NMeA])) | 6.85
4 | CC[C@H](C)[C@@H]1NC(=O)[C@H](CC(C)C)N(C)C(=O)C[C@@H](C)N(C)C(=O)[C@H](CC(C)C)NC(=O)C(C)(C)N(C)C(=O)[C@H](CC(C)C)NC(=O)[C@H](CCc2ccc(C(F)(F)F)c(F)c2)NC(=O)CN(C)C(=O)[C@H](CC2CCCCC2)N(C)C(=O)CN(C)C(=O)[C@@H]2CCN2C1=O [Compound 905] (cyclo([Aze][Sar][NMeCha][Sar][hPhe(3-F,4-CF3)]L[NMeAib]L[NMedβ3hAla][NMeL]I)) | 6.74
5 | CC[C@H](C)[C@@H]1NC(=O)[C@H](C)N(C)C(=O)C[C@@H](C(=O)N2CCCC2)N(C)C(=O)[C@H](C(C)C)N(C)C(=O)C2(CCC2)NC(=O)[C@H](Cc2ccccc2Cl)N(C)C(=O)[C@H](CCc2ccc(C(F)(F)F)c(Cl)c2)NC(=O)CN(C)C(=O)[C@H](CC2CCCCC2)N(C)C(=O)CN(C)C(=O)CN(C)C1=O [Compound 906] ([NMeA]I[Sar][Sar][NMeCha][Sar][hPhe(3-Cl-4-CF3)][NMePhe(2-Cl)][Ac4c][NMeV][NMeD]-Pyrrolidide; lactam N-11) | 8.57
6 | CC[C@H](C)[C@@H]1NC(=O)[C@H](CC(C)C)N(C)C(=O)C[C@@H](C(=O)N(C)C)N(C)C(=O)[C@H](C2CCCC2)N(C)C(=O)C2(CCCC2)NC(=O)[C@H](Cc2ccc(C)cc2)N(C)C(=O)[C@H](CCc2ccc(C(F)(F)F)c(Cl)c2)NC(=O)CN(C)C(=O)[C@H](CC2CCCCC2)N(C)C(=O)[C@@H]2CCN2C(=O)[C@H](C)N(C)C1=O [Compound 908] ([NMeL]I[NMeA][Aze][NMeCha][Sar][hPhe(3-Cl-4-CF3)][NMePhe(4-Me)][Ac5c][NMeGly(cPent)][NMeD]-NMe2; lactam N-11) | 7.41
7 | CC[C@H](C)[C@@H]1NC(=O)[C@H](C)N(C)C(=O)C[C@@H](C)NC(=O)[C@H](C(C)C)N(C)C(=O)[C@H](Cc2ccccc2)N(C)C(=O)[C@H](CC(C)C)N(C)C(=O)[C@H](CCc2ccc(C(F)(F)F)cc2)NC(=O)CN(C)C(=O)[C@H](Cc2ccc(Cl)cc2)N(C)C(=O)[C@@H]2CCN2C(=O)CN(C)C1=O [Compound 913] (cyclo([Aze][NMePhe(4-Cl)][Sar][hPhe(4-CF3)][NMeL][NMeF][NMeV][d(β3hA)][NMeA]I[Sar])) | 7.28
8 | CC[C@H](C)[C@@H]1NC(=O)[C@H](CC(C)C)N(C)C(=O)C[C@@H](C(=O)N(C)C)N(C)C(=O)[C@H]([C@@H](C)CC)N(C)C(=O)[C@H](C(C)C)NC(=O)[C@@H](C)NC(=O)[C@H](CCc2ccc(C(F)(F)F)c(Cl)c2)NC(=O)CN(C)C(=O)[C@H](Cc2ccc(C)cc2)N(C)C(=O)[C@@H]2CCN2C(=O)[C@H](C)N(C)C1=O [Compound 915] ([NMeL]I[NMeA][Aze][NMePhe(4-Me)][Sar][hPhe(3-Cl-4-CF3)][dA]V[NMeI][NMeD]-NMe2; lactam N-11) | 7.40
9 | CC[C@H](C)[C@@H]1NC(=O)[C@H](CC(C)C)N(C)C(=O)C[C@@H](C(=O)N2CCCCC2)N(C)C(=O)[C@H](C2CCCCC2)N(C)C(=O)[C@@H](C)NC(=O)[C@@H]2CCCN2C(=O)[C@H](CCc2ccc(C(F)(F)F)c(Cl)c2)NC(=O)CN(C)C(=O)[C@H](CC2CCCCC2)N(C)C(=O)CN(C)C(=O)CN(C)C1=O [Compound 917] ([NMeL]I[Sar][Sar][NMeCha][Sar][hPhe(3-Cl-4-CF3)]P[dA][NMeChg][NMeD]-Piperidide; lactam N-11) | 8.70
10 | CC[C@H](C)[C@@H]1NC(=O)[C@H](C)N(C)C(=O)C[C@@H](C)NC(=O)[C@H](C2CCCC2)N(C)C(=O)C2(CCCC2)NC(=O)[C@@H]2CCCN2C(=O)[C@H](CCc2ccc(C(F)(F)F)c(Cl)c2)NC(=O)[C@@H](C)N(C)C(=O)[C@H](Cc2cccnc2)N(C)C(=O)CN(C)C(=O)CN(C)C1=O [Compound 919] (cyclo([Ac5c][NMeGly(cPent)][d(β3hA)][NMeA]I[Sar][Sar][NMe3Pal][dNMeA][hPhe(3-Cl-4-CF3)]P)) | 7.28
11 | CC[C@H](C)[C@@H]1NC(=O)[C@H](CC(C)C)N(C)C(=O)C[C@@H](C)NC(=O)[C@H](CC(C)C)N(C)C(=O)C(C)(C)NC(=O)[C@@H]2C[C@@H]3CCCC[C@@H]3N2C(=O)[C@H](CCc2ccc(C(F)(F)F)cc2)NC(=O)CN(C)C(=O)[C@H](Cc2ccc(Cl)cc2)N(C)C(=O)CN(C)C(=O)CN(C)C1=O [Compound 922] (cyclo([Aib][NMeL][d(β3hA)][NMeL]I[Sar][Sar][NMePhe(4-Cl)][Sar][hPhe(4-CF3)][Oic])) | 6.64
12 | CC[C@H](C)[C@@H]1NC(=O)[C@H](CC(C)C)N(C)C(=O)C[C@@H](C(=O)N2CCCCC2)N(C)C(=O)[C@H](CC(C)C)NC(=O)C(C)(C)N(C)C(=O)[C@H](CCc2ccccc2)NC(=O)[C@H](Cc2cccc(I)c2)NC(=O)CN(C)C(=O)[C@H](CC2CCCCC2)N(C)C(=O)[C@@H]2CCN2C(=O)CN(C)C1=O [Compound 931] ([NMeL]I[Sar][Aze][NMeCha][Sar][Phe(3-I)][hPhe][NMeAib]L[NMeD]-Piperidide; lactam N-11) | 6.57
13 | CC[C@H](C)[C@@H]1NC(=O)[C@H](CC(C)C)N(C)C(=O)C[C@@H](C)NC(=O)[C@H](C2CCCC2)N(C)C(=O)[C@H](C(C)C)NC(=O)[C@@H]2CCCN2C(=O)[C@H](CCc2ccc(C(F)(F)F)c(Cl)c2)NC(=O)CN(C)C(=O)[C@H](Cc2ccc(C)cc2)N(C)C(=O)[C@@H]2CCN2C(=O)[C@H](C)N(C)C1=O [Compound 933] (cyclo([Aze][NMePhe(4-Me)][Sar][hPhe(3-Cl-4-CF3)]PV[NMeGly(cPent)][d(β3hA)][NMeL]I[NMeA])) | 7.08
14 | CCCC[C@@H]1NC(=O)[C@H](Cc2cccc(I)c2)NC(=O)CN(C)C(=O)[C@H](Cc2ccc(Cl)cc2)N(C)C(=O)CN(C)C(=O)CN(C)C(=O)[C@H]([C@@H](C)CC)NC(=O)[C@H](CC(C)C)N(C)C(=O)C[C@@H](C(=O)N2CCCCC2)N(C)C(=O)[C@H](CC(C)C)NC(=O)[C@H](Cc2ccc(Cl)cc2)N(C)C1=O [Compound 934] ([NMeL]I[Sar][Sar][NMePhe(4-Cl)][Sar][Phe(3-I)][Nle][NMePhe(4-Cl)]L[NMeD]-Piperidide; lactam N-11) | 7.47
15 | CC[C@H](C)[C@@H]1NC(=O)[C@H](CC(C)C)N(C)C(=O)C[C@@H](C(=O)N2CCCCC2)N(C)C(=O)[C@H](C(C)C)N(C)C(=O)C2(CCCC2)NC(=O)[C@@H]2CCCN2C(=O)[C@H](CCc2ccc(C(F)(F)F)c(Cl)c2)NC(=O)CN(C)C(=O)[C@H](Cc2ccccc2C#N)N(C)C(=O)CN(C)C(=O)CN(C)C1=O [Compound 935] ([NMeL]I[Sar][Sar][NMePhe(2-CN)][Sar][hPhe(3-Cl-4-CF3)]P[Ac5c][NMeV][NMeD]-Piperidide; lactam N-11) | 8.22
16 | CC[C@H](C)[C@@H]1NC(=O)[C@H](CC(C)C)N(C)C(=O)C[C@@H](C(=O)N2CCCCC2)N(C)C(=O)[C@H](C2CCCCC2)N(C)C(=O)C2(CCCC2)NC(=O)[C@@H]2CCCN2C(=O)[C@H](CCc2ccc(C(F)(F)F)c(Cl)c2)NC(=O)CN(C)C(=O)[C@H](C2CCC2)N(C)C(=O)CN(C)C(=O)CN(C)C1=O [Compound 936] ([NMeL]I[Sar][Sar][NMeGly(cBu)][Sar][hPhe(3-Cl-4-CF3)]P[Ac5c][NMeChg][NMeD]-Piperidide; lactam N-11) | 8.96
17 | CC(C)C[C@H]1C(=O)N[C@@H](C2CCCCC2)C(=O)N(C)CC(=O)N(C)CC(=O)N(C)[C@@H](CC2CCCCC2)C(=O)N(C)CC(=O)N[C@@H](CCc2ccc(C(F)(F)F)c(Cl)c2)C(=O)N2CCC[C@H]2C(=O)NC2(CCCC2)C(=O)N(C)[C@@H](C(C)C)C(=O)N[C@H](C)CC(=O)N1C [Compound 937] (cyclo([Ac5c][NMeV][d(β3hA)][NMeL][Chg][Sar][Sar][NMeCha][Sar][hPhe(3-Cl-4-CF3)]P)) | 6.60
18 | COCC[C@@H]1NC(=O)[C@H](CC(C)C)N(C)C(=O)C[C@@H](C(=O)N2CCCCC2)N(C)C(=O)[C@H](C2CCCCC2)N(C)C(=O)C2(CCCC2)NC(=O)[C@@H]2CCCN2C(=O)[C@H](CCc2ccc(C(F)(F)F)c(Cl)c2)NC(=O)CN(C)C(=O)[C@H](CC2CCCCC2)N(C)C(=O)CN(C)C(=O)CN(C)C1=O [Compound 941] ([NMeL][hSer](Me)[Sar][Sar][NMeCha][Sar][hPhe(3-Cl-4-CF3)]P[Ac5c][NMeChg][NMeD]-Piperidide; lactam N-11) | 8.48
